From patent US12497610B2, “Functional genomics using CRISPR-CAS systems for saturating mutagenesis of non-coding elements, compositions, methods, libraries and applications thereof” (THE BROAD INSTITUTE, INC., priority 2015, dated 2025)

What was measured:
CUL3 = assay: ddPCR quantification of CUL3 expression in A375 cells transduced with individual sgRNAs; format: cell-based, human; conditions: A375, relative to non-targeting sgRNAs; result in words
Text: Array Validation of Primary Screen Hits
For individual (array) validation of noncoding sgRNAs, Applicants first identified sgRNAs enriched in the top 5% of the library as given by the normalized log 2(Vemu/DMSO) read ratio. In order to have high confidence in these sgRNAs, Applicants used the minimum of the two infection replicates for the normalized log2 (Vemu/DMSO) read ratio. […] This ensures that putative noncoding functional elements were supported by the presence of at least 2 enriched sgRNAs. From this group, Applicants picked 25 sgRNAs distributed across different genomic regions for individual validation (see table S2 for a list of sgRNA sequences). Applicants also included 3 exon-targeting and 3 non-targeting sgRNAs to serve as positive and negative controls, respectively.
For each sgRNA, standard desalted short oligonucleotides (Integrated DNA Technologies) were annealed, phosphorylated and cloned into a lentiviral vector (lentiCRISPRv2, Addgene 52961) that contained Cas9 and an sgRNA cassette. For each sgRNA, A375 cells were transduced with lentiviral supernatants. After 24 hours, media was replaced with R10 with 1 ug/mL of puromycin. Viral volumes were titered such that 20-40% of cells survived after puromycin selection. After selection and expansion for 7 days in puromycin, cell were plated for DNA/RNA extraction, vemurafenib resistance, or ChIP assays.
RNA Extraction and ddPCR Quantification of CUL3 Expression
After 7 days of puromycin selection, A375 cells transduced with individual lentiCRISPRv2 sgRNAs were plated in 3 replicate wells (2×10^3 cells/well) in 96-well plates. After 4 days (70-90% confluent), RNA was extracted using a homemade version of a rapid lysis kit for quantitative PCR (similar to commercial “Cells-to-Ct”-style kits). This procedure (detailed below) enables rapid RNA extraction and qPCR/ddPCR readout from 96-well plates with minimal hands-on time.
Cells were first washed in 100 ul of chilled phosphate-buffered saline (PBS). Then, cells were incubated at room temperature for 8 minutes in 50 ul of Complete Lysis Buffer. The Complete Lysis Buffer consists of the Base Lysis Buffer with freshly added 100 ug/ml Proteinase K (Sigma P2308) and 300 U/mL DNase I (Sigma D2821). When adding DNase I, it is important to not vortex but mix only by gentle pipetting. The Base Lysis Buffer is made in RNAse-free water (ThermoFisher Scientific 10977015) with 10 mM Tris pH8 (Ambion AM9856), 0.5 mM MgCl2 (Sigma M1028), 0.44 mM CaCl2 (Sigma 21115), 10 uM DTT (Sigma 43816), 0.1% Triton X-114 (Calbiochem 648468), and 1.73 mN HCl (Sigma 318965) and should have a final pH of 7.8. The Base Lysis Buffer is stable at 4° C. for up to 6 months.
After the 8-minute incubation in Complete Lysis Buffer, 30 ul of the cell lysis was added to new PCR plates containing 3 ul of STOP buffer in each well to stop the lysis reaction. The STOP buffer is made in RNAse-free water with 1 mM Proteinase K inhibitor AAPF N-(Methoxysuccinyl)-Ala-Ala-Pro-Phe-chloromethyl ketone (SEQ ID NO: 174) (Millipore 539470), 90 mM EDTA (ThermoFisher Scientific 15575020), and 113 uM DTT (Sigma 43816). The final pH of the STOP buffer should be 8, adjusted appropriately with HCl and KOH. The STOP buffer is stable for up to 6 months at 20° C. The lysis reaction was mixed with the STOP buffer by pipetting up and down 5 times. Applicants then incubated the lysis and STOP buffer for at least 2 minutes but not more than 20 minutes. (Extra stopped lysis can be stored at −80° C. for up to 5 months.)
Applicants transferred 5 ul of the stopped lysis to new PCR plates with 20 ul of RT master mix. The RT master mix is from the RevertAid Reverse Transcriptase kit (ThermoFisher Scientific K1691) and is as described in the manufacturer's protocol but with an added oligo-dT primer. […]

YY1 = assay: ChIP-ddPCR for YY1; format: cell-based, human; conditions: ChIP-ddPCR around cut site vs non-targeting sgRNA
Description: Chromatin Immunoprecipitation (ChIP) for Histone Modifications and Transcription Factors
After 7 days of puromycin selection, A375 cells transduced with individual lentiCRISPRv2 sgRNAs were plated in T-225 flasks and grown to 70-90% confluence (6 days). At this point, chromatin fixation was initiated by adding formaldehyde directly to the growth media (final concentration 1%) and incubating at 37° C. for 10 minutes. The entire two-day ChIP procedure was performed using the Magna ChIP HiSens Chromatin Immunoprecipitation Kit (Millipore 1710460), as specified in the manufacturer's protocol. […]
Using BatchPrimer3, Applicants designed primers centered on the sgRNA target site with a target amplicon size of 80-120 bp (see table S4 for ChIP-ddPCR primers). Droplet digital PCR (ddPCR) reactions using EvaGreen (BioRad 1864034) were used to quantify changes between input, histone/TF ChIP, and IgG ChIP samples for A375 cells transduced with specific sgRNAs and untransduced A375 cells. […] Applicants calculated the percent change in ChIP signal after genome editing by normalizing each ChIP sample to its corresponding input sample and then comparing the normalized ChIP between A375s transduced with specific sgRNAs and untransduced (control) A375 cells.

[1] = test system: human BCL11A erythroid enhancer; assay: Tiled pooled CRISPR-Cas9 screen for in situ functional mapping of the human BCL11A erythroid enhancer (HbF-high/HbF-low sort, sgRNA deep sequencing); format: cell-based; conditions: for Enrichment Score: HbF enrichment, human library NGG and NGG RC sgRNAs filtered for enrichment score >0.259; for Dropout Score: human library sgRNAs that produced HbF enrichment over 0.259
Summary of the method: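 HUDEP-2 cells stably expressing Cas9 transduced at low multiplicity with tiled sgRNA library covering +55/+58/+62 DHS, selected with blasticidin/puromycin, expanded one week then differentiated one week. Top and bottom 10% HbF-stained cells FACS-sorted; sgRNA representation determined by deep sequencing of genomic DNA.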

Substance	CUL3 expression (CUL3)	decrease of YY1 binding (YY1) [%]	Enrichment Score [1]	Dropout Score [1]
5′-UTR sg1: validation sgRNA AGGAGGAGGAGGACGACGTT, SEQ ID NO 457, 5′ UTR (expressed or natural sequence)	significantly decrease	26		
BCL_00228_H_D62 (guide TCCCAGCACTTTGGGAGGCCNGG; listed as DNA, chemistry not given here)			0.761	−5.658
BCL_00096_H_D55 (guide AGCAAATAGGCTTAGTGTGCNGG; listed as DNA, chemistry not given here)			0.3521	−0.2396
BCL_01800_H_D62 (guide GCCCCGGCCTCCCAAAGTGCNGGRC; listed as DNA, chemistry not given here)			0.6113	−7.65
BCL_01634_H_D58 (guide TGGGTGGGGTAGAAGAGGACNGGRC; listed as DNA, chemistry not given here)			0.4147	−1.078
BCL_00238_H_D62 (guide TGCCTGTAATCTCAGCTACTNGG; listed as DNA, chemistry not given here)			0.6113	−8.923
BCL_00084_H_D55 (guide AGGGTGTGCCCTGAGAAGGTNGG; listed as DNA, chemistry not given here)			0.311	−0.3691
BCL_02004_H_exon2 (guide CCCCCAATGGGAAGTTCATCNGGRC; listed as DNA, chemistry not given here)			0.4685	−0.1189
BCL_01427_H_D55 (guide GGCTAAATAATGAATGTCCCNGGRC; listed as DNA, chemistry not given here)			0.367	−0.2716
BCL_01627_H_D58 (guide TTGGCCTCTGATTAGGGTGGNGGRC; listed as DNA, chemistry not given here)			0.3054	−0.2564
BCL_00027_H_D55 (guide CCCATGGAGGTGGGGAGATGNGG; listed as DNA, chemistry not given here)			0.2823	−0.4562
BCL_00073_H_D55 (guide AGCACACAAGATGCACACCCNGG; listed as DNA, chemistry not given here)			0.4199	−0.8372
BCL_00091_H_D55 (guide CCCACTTCCCTTCCTAGAATNGG; listed as DNA, chemistry not given here)			1.168	−0.5042
BCL_00086_H_D55 (guide CTCCAAGCATTGCATCATCCNGG; listed as DNA, chemistry not given here)			0.6343	−0.2703
BCL_00265_H_exon2 (guide GCATCCAATCCCGTGGAGGTNGG; listed as DNA, chemistry not given here)			1.291	−0.8895
BCL_01454_H_D55 (guide GGGTCGCGGTAGGGAGTTGTNGGRC; listed as DNA, chemistry not given here)			0.3579	−0.5577
BCL_01790_H_D62 (guide TTGCCCGGGCTGGAATGCAANGGRC; listed as DNA, chemistry not given here)			0.4673	−8.123
BCL_00184_H_D58 (guide CCTGGGCAAACGGCCACCGANGG; listed as DNA, chemistry not given here)			0.3155	−0.5414
BCL_00257_H_exon2 (guide TGCCAGATGAACTTCCCATTNGG; listed as DNA, chemistry not given here)			1.945	−1.9609
BCL_01449_H_D55 (guide GTGCTTGGTCGGCACTGATANGGRC; listed as DNA, chemistry not given here)			1.134	−0.6101
BCL_01450_H_D55 (guide TGCTTGGTCGGCACTGATAGNGGRC; listed as DNA, chemistry not given here)			1.578	−0.3195
BCL_00253_H_exon2 (guide CCCGTTGGGAGCTCCAGAAGNGG; listed as DNA, chemistry not given here)			1.205	−1.968
BCL_00154_H_D58 (guide AGGGAAAAGGGAGAGGAAAANGG; listed as DNA, chemistry not given here)			0.4446	−0.3992
BCL_00051_H_D55 (guide GGAGGTGTGGAGGGGATAACNGG; listed as DNA, chemistry not given here)			0.3141	−0.1655
